# Source: patent publication US11840686B2, “Modulation of prekallikrein (PKK) expression” (Ionis Pharmaceuticals, Inc., priority 2013, dated 2023)
# Strand notation (5' to 3'): a small letter for the sugar, then the base; units joined by * are phosphorothioate-linked, units joined directly phosphodiester-linked; [ ] holds rarer units or linkages, { } end groups; capitals alone tell only the bases. e = 2'-O-(2-methoxyethyl) (MOE); k = constrained ethyl (cEt); [5mC] = 5-methylcytosine; d = 2'-deoxy (DNA)
# Tested on: human PKK mRNA
# Assay: Antisense inhibition of human PKK mRNA in HepaRG cells, 1,000 nM, MOE/deoxy/cEt oligonucleotides (Example 3)
# Assay type: cell-based
# Conditions: Table 28; HepaRG cells, 1,000 nM antisense oligonucleotide; human PKK mRNA
# Method in brief: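 HepaRG cells at 20,000 per well electroporated with 1,000 nM 16-mer MOE/cEt/deoxy gapmers (phosphorothioate, 5-methylcytosine). After about 24 h, PKK mRNA measured by qRT-PCR with primer probe set RTS3454, normalized to RIBOGREEN total RNA. Reported as percent inhibition versus untreated cells.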
row,Substance,% inhibition [%]
1,548459 (e[5mC]*eA*kA*d[5mC]*dT*dA*dT*dA*dA*d[5mC]*dA*dG*dT*kA*kT*e[5mC]; antisense) [compound 548459],26
2,548460 (e[5mC]*eT*kA*dT*dA*d[5mC]*d[5mC]*dA*d[5mC]*dG*dG*dT*dA*kA*k[5mC]*eT; antisense) [compound 548460],0
3,548461 (e[5mC]*e[5mC]*kT*dA*dT*dA*dT*d[5mC]*dA*d[5mC]*dT*dG*dT*kA*kA*e[5mC]; antisense) [compound 548461],0
4,548462 (eA*e[5mC]*k[5mC]*dT*dA*dT*dA*dT*d[5mC]*dA*d[5mC]*dT*dG*kT*kA*eA; antisense) [compound 548462],0
5,548463 (eT*e[5mC]*kA*d[5mC]*dT*dG*dT*dA*d[5mC]*d[5mC]*dT*dA*dT*kA*kT*e[5mC]; antisense) [compound 548463],0
6,548464 (eG*eT*k[5mC]*d[5mC]*dT*dA*dT*dA*dA*d[5mC]*dT*dA*dT*kA*kT*e[5mC]; antisense) [compound 548464],0
7,548465 (e[5mC]*eT*kG*dT*dA*d[5mC]*d[5mC]*dT*dA*dT*dA*dA*d[5mC]*kT*kG*eT; antisense) [compound 548465],0
8,548466 (e[5mC]*eG*kT*d[5mC]*dA*d[5mC]*dT*dG*dT*dA*d[5mC]*d[5mC]*dT*kA*kT*eA; antisense) [compound 548466],71
9,548467 (e[5mC]*eA*kT*d[5mC]*dA*d[5mC]*dT*dG*dT*dA*d[5mC]*d[5mC]*dT*kA*kT*eA; antisense) [compound 548467],20
10,548468 (e[5mC]*eA*kA*d[5mC]*dA*dT*d[5mC]*dA*d[5mC]*dT*dG*dT*dA*k[5mC]*k[5mC]*eT; antisense) [compound 548468],6
11,548469 (eT*eT*k[5mC]*d[5mC]*d[5mC]*dT*dA*d[5mC]*d[5mC]*d[5mC]*d[5mC]*dT*dG*kG*kT*eA; antisense) [compound 548469],0
12,548470 (eG*eG*kT*dG*dG*dA*dA*dT*dG*dT*d[5mC]*dA*dT*kG*kG*e[5mC]; antisense) [compound 548470],56
13,548471 (eG*e[5mC]*kG*dG*dA*dA*dA*dA*d[5mC]*dT*dG*dG*d[5mC]*k[5mC]*kG*eT; antisense) [compound 548471],17
14,548472 (e[5mC]*e[5mC]*k[5mC]*dA*dA*dT*dA*d[5mC]*dA*dG*dG*dG*d[5mC]*k[5mC]*kA*eG; antisense) [compound 548472],0
15,548473 (e[5mC]*e[5mC]*kA*dA*d[5mC]*d[5mC]*dT*dT*d[5mC]*d[5mC]*d[5mC]*dA*dA*kT*k[5mC]*eT; antisense) [compound 548473],0
16,548474 (eG*eA*kA*dG*dG*dT*dG*dT*dG*d[5mC]*dT*dG*dT*k[5mC]*kG*e[5mC]; antisense) [compound 548474],33

row,Substance,% inhibition [%]
1,548475 (eA*eT*k[5mC]*dG*dA*dG*dT*d[5mC]*d[5mC]*dT*dG*d[5mC]*d[5mC]*kT*k[5mC]*e[5mC]; antisense) [compound 548475],17
2,548476 (eG*e[5mC]*kA*dA*dA*dT*d[5mC]*d[5mC]*dT*dT*d[5mC]*d[5mC]*dA*kG*k[5mC]*eA; antisense) [compound 548476],27
3,548477 (eG*e[5mC]*kA*d[5mC]*dG*dA*dG*d[5mC]*dT*dT*dG*d[5mC]*d[5mC]*kT*kG*eT; antisense) [compound 548477],26
4,548478 (eG*eA*kG*d[5mC]*d[5mC]*dA*dT*d[5mC]*d[5mC]*dA*dG*dG*dG*kT*kG*e[5mC]; antisense) [compound 548478],53
5,548480 (eG*e[5mC]*k[5mC]*dA*d[5mC]*dG*d[5mC]*d[5mC]*d[5mC]*dT*dT*dA*dG*k[5mC]*kA*eG; antisense) [compound 548480],20
6,548481 (eG*eT*kT*d[5mC]*d[5mC]*d[5mC]*dT*dG*dA*dG*dG*dA*dA*k[5mC]*kG*eG; antisense) [compound 548481],2
7,548482 (eG*eG*k[5mC]*dA*dG*dT*dT*dA*dG*dG*d[5mC]*d[5mC]*dA*kG*kG*eA; antisense) [compound 548482],53
8,548483 (e[5mC]*eT*kA*d[5mC]*dA*dG*dA*dT*d[5mC]*dA*dT*d[5mC]*d[5mC]*k[5mC]*kT*eA; antisense) [compound 548483],5
9,548484 (e[5mC]*e[5mC]*k[5mC]*d[5mC]*dG*dG*dA*dG*d[5mC]*dA*d[5mC]*d[5mC]*dT*kT*k[5mC]*eA; antisense) [compound 548484],41
10,548485 (eG*eT*kG*dA*d[5mC]*d[5mC]*d[5mC]*dA*dA*dG*dG*dG*dT*k[5mC]*kG*eA; antisense) [compound 548485],17
11,548487 (eT*e[5mC]*k[5mC]*dA*dT*dG*dT*d[5mC]*dA*dG*dA*dG*dT*kT*kG*e[5mC]; antisense) [compound 548487],71
12,548488 (antisense e[5mC]*e[5mC]*kT*d[5mC]*d[5mC]*dT*dT*dT*dT*dG*dG*d[5mC]*dT*kT*kG*eA) [compound 548488],63
13,548489 (antisense eT*eT*k[5mC]*d[5mC]*d[5mC]*d[5mC]*dA*dG*dA*dG*dG*dT*dG*kA*kT*eA) [compound 548489],16
14,548490 (antisense eT*e[5mC]*kT*dG*dG*dT*dT*dA*dG*d[5mC]*d[5mC]*dT*d[5mC]*k[5mC]*kG*eA) [compound 548490],58
15,548491 (antisense eT*eG*kG*d[5mC]*d[5mC]*dA*dA*dG*d[5mC]*dA*dA*d[5mC]*d[5mC]*kA*kG*eT) [compound 548491],57
16,548492 (antisense eG*e[5mC]*k[5mC]*d[5mC]*dA*dA*dT*dG*dT*d[5mC]*d[5mC]*dT*dA*kA*k[5mC]*e[5mC]) [compound 548492],51

# Same assay, conditions: Table 30; human PKK mRNA, HepaRG cells, 1,000 nM antisense oligonucleotide
row,Substance,% inhibition [%]
1,548442 (antisense eT*eT*k[5mC]*d[5mC]*dT*dA*dT*dA*dA*d[5mC]*dA*dG*dT*kA*kT*e[5mC]) [compound 548442],17
2,548443 (antisense eG*eT*kT*dT*d[5mC]*d[5mC]*dT*dA*dT*dA*dA*d[5mC]*dA*kG*kT*eA) [compound 548443],12
3,548444 (antisense e[5mC]*eT*kA*dT*dG*dT*d[5mC]*dA*d[5mC]*dT*dG*dT*dA*k[5mC]*k[5mC]*eT) [compound 548444],43
4,548445 (antisense e[5mC]*e[5mC]*kT*dA*dT*dG*dT*d[5mC]*dA*d[5mC]*dT*dG*dT*kA*k[5mC]*e[5mC]) [compound 548445],62
5,548446 (antisense eT*e[5mC]*k[5mC]*dT*dA*dT*dG*dT*d[5mC]*dA*d[5mC]*dT*dG*kT*kA*e[5mC]) [compound 548446],16
6,548447 (antisense e[5mC]*eA*k[5mC]*dT*dG*dT*d[5mC]*d[5mC]*dT*dA*dT*dG*dT*k[5mC]*kA*e[5mC]) [compound 548447],59
7,548448 (eT*e[5mC]*kA*d[5mC]*dT*dG*dT*d[5mC]*d[5mC]*dT*dA*dT*dG*kT*k[5mC]*eA; antisense) [compound 548448],61
8,548449 (eA*eT*k[5mC]*dA*d[5mC]*dT*dG*dT*d[5mC]*d[5mC]*dT*dA*dT*kG*kT*e[5mC]; antisense) [compound 548449],62
9,548450 (e[5mC]*eT*kA*d[5mC]*d[5mC]*dT*dA*dT*dA*dA*d[5mC]*dT*d[5mC]*kT*kA*eA; antisense) [compound 548450],0
10,548451 (eG*eT*k[5mC]*d[5mC]*dT*dA*dT*dA*dA*d[5mC]*dT*dA*dT*kA*kA*e[5mC]; antisense) [compound 548451],0
11,548452 (eT*eA*kT*dA*dT*d[5mC]*dA*d[5mC]*dT*dG*dT*dA*d[5mC]*k[5mC]*kT*eA; antisense) [compound 548452],65
12,548453 (eT*eA*k[5mC]*d[5mC]*dT*dA*dT*dA*dA*d[5mC]*dA*dG*dT*kA*kT*e[5mC]; antisense) [compound 548453],12
13,548454 (eA*e[5mC]*kT*dG*dT*dA*d[5mC]*d[5mC]*dT*dA*dT*dA*dA*k[5mC]*kA*eG; antisense) [compound 548454],17
14,548455 (e[5mC]*eA*k[5mC]*d[5mC]*dG*dT*dA*d[5mC]*dT*dA*dG*dT*dT*kT*k[5mC]*e[5mC]; antisense) [compound 548455],64
15,548456 (eT*eA*kT*dA*dA*d[5mC]*dA*dG*dT*dA*dT*d[5mC]*dA*k[5mC]*k[5mC]*eG; antisense) [compound 548456],52
16,548457 (e[5mC]*eT*kA*dT*dA*dA*d[5mC]*dA*dG*dT*dA*dT*d[5mC]*kA*k[5mC]*e[5mC]; antisense) [compound 548457],13
17,548458 (eA*e[5mC]*k[5mC]*dT*dA*dT*dA*dA*d[5mC]*dT*dA*dT*dA*kA*k[5mC]*eA; antisense) [compound 548458],0
